# Experimental data from patent US20240408169A1 (priority 2023, published 2024).
# Read-outs that look alike come from different tables or passages of the source. *1 amine or outer side, *2 acyl side, *3 side chain or, on linkers, in order; H or OH if unused. Where a SMILES comes first, the peptide text is derived from it. Bridges are numbered along the chain shown (N, C = ends). [ ]: non-standard residue; d: D form. The star is where a group is joined. X98 = CN1CC2(C1)OCc1cc(-c3ccc(Cl)cc3C[C@@H](C(=O)[*:2])N(C)[*:1])ccc12; X216 = CN1CCC(c2ccc(Cl)cc2C[C@@H](C(=O)[*:2])N(C)[*:1])=CC1=O; NMehhhLys(Me) = CN([C@@H](CCCCCCCN(C)[*:3])C(=O)[*:2])[*:1]; X215 = Cc1noc(C)c1-c1ccc(Cl)cc1C[C@@H](C(=O)[*:2])N(C)[*:1]; NMe(hhhLys) = CN([C@@H](CCCCCCCN[*:3])C(=O)[*:2])[*:1]; NMe3Pal(2-OMe,5-Cl) = CN[C@@H](Cc1cc(Cl)cnc1OC)C(=O)O; X213 = CN([C@@H](Cc1cc(Cl)cc2c1cnn2C)C(=O)[*:2])[*:1]; X214 = CC(C)Cc1ccc(Cl)cc1C[C@@H](C(=O)[*:2])N(C)[*:1]; cBuCO(3,3-F2-1-CF3) = O=C(C1(C(F)(F)F)CC(F)(F)C1)*; Pro(trans-4-F) = O=C(O)[C@@H]1C[C@@H](F)CN1; Gly(cPr) = N[C@H](C(=O)O)C1CC1
# Key:
# OVCAR3 cells = assay: MTT proliferation assay, OVCAR3; type: cell-based; settings: 5 days compound exposure, 1:3 serial dilution starting at 10 μM;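 also: compound given as an 8- or 10-point series, one day after plating, with exposure covering roughly 3-4 cell doublings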
# NCI-H1048 cells = assay: MTT proliferation assay, NCI-H1048; type: cell-based; settings: 5 days compound exposure, 1:3 serial dilution starting at 10 μM;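 also: Dose-response in 96-well plates over 8 or 10 concentration points, with exposure spanning 3-4 cell doublings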
# CyclinE1/CDK2 = molecular target: T1, CyclinE1/CDK2 (Homo sapiens, UniProt P24864); assay: Fluorescence Polarization (FP) competitive binding assay, Cyclin E1/Cdk2;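 also: readings taken after two-hour equilibration at room temperature in HEPES buffer with NaCl, DTT, NP-40 and BSA, IC50 fitted from eight-concentration serial dilution series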
# T1 construct: purchased Eurofins, discovery 14-475
# CyclinB1/CDK1 = molecular target: T2, CyclinB1/CDK1 (Homo sapiens, UniProt P14635); assay: Fluorescence Polarization (FP) competitive binding assay, Cyclin B1/Cdk1;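 also: fluorescence polarization read after equilibration at room temperature, with IC50 taken from serially diluted dose-response curves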
# T2 construct: purchased Eurofins, discovery 14-450
# CyclinA2/CDK2 = molecular target: T3, CyclinA2/CDK2 (Homo sapiens, UniProt P20248); assay: Fluorescence Polarization (FP) competitive binding assay, Cyclin A2/Cdk2;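 also: plates equilibrated two hours at room temperature before polarization reading, IC50 fitted from eight-concentration compound titration curves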
# T3 construct: purchased CRELUX Protein Services
# [1] = 10 nM Cyclin E1/Cdk2, 2 nM FAM probe, average of 2-3 independent experiments, read-out: Cyclin E FP IC50
# [2] = 10 nM Cyclin B1/Cdk1, 2 nM FAM probe; average of 2-3 independent experiments; read-out: Cyclin B FP IC50
# [3] = read-out: Cyclin B FP IC50; 10 nM Cyclin B1/Cdk1, 2 nM FAM probe; average of 2-3 independent experiments
# [4] = 8 nM Cyclin A2/Cdk2, 2 nM FAM probe, average of 2-3 independent experiments, read-out: Cyclin A FP IC50
Structure (SMILES),GI50 (OVCAR3 cells) [nM],GI50 (NCI-H1048 cells) [nM],IC50 (CyclinE1/CDK2; [1]) [nM],IC50 (CyclinB1/CDK1; [2]) [nM],"IC50 (CyclinE1/CDK2; Cyclin E FP IC50, 10 nM Cyclin E1/Cdk2, 2 nM FAM probe, average of 2-3 independent experiments) [nM]",IC50 (CyclinB1/CDK1; [3]) [nM],IC50 (CyclinA2/CDK2; [4]) [nM],IC50 (CyclinE1/CDK2) [nM],IC50 (CyclinA2/CDK2) [nM]
"CC(C)C[C@@H]1NC(=O)[C@@H](N(C)C(=O)[C@@H](NC(=O)[C@@H]2C[C@@H](F)CN2C(=O)C2(C(F)(F)F)CC(F)(F)C2)C2CC2)CCCCCCCN(C)C(=O)[C@H](Cc2cc(Cl)cc3c2cnn3C)N(C)C1=O [Example 424] ({cBuCO(3,3-F2-1-CF3)}-[Pro(trans-4-F)][Gly(cPr)][NMehhhLys(Me)]L[X213]; lactam 3-C)",1780,2510,3820,45.5,–,–,–,–,–
"CC(C)C[C@@H]1NC(=O)[C@@H](N(C)C(=O)[C@@H](NC(=O)[C@@H]2C[C@@H](F)CN2C(=O)C2(C(F)(F)F)CC(F)(F)C2)C2CC2)CCCCCCCN(C)C(=O)[C@H](Cc2cc(Cl)ccc2C2=CC(=O)N(C)CC2)N(C)C1=O [Example 237] ({cBuCO(3,3-F2-1-CF3)}-[Pro(trans-4-F)][Gly(cPr)][NMehhhLys(Me)]L[X216]; lactam 3-C)",40,10,–,–,1140,20,–,–,–
"CC(C)C[C@@H]1NC(=O)[C@@H](N(C)C(=O)[C@@H](NC(=O)[C@@H]2C[C@@H](F)CN2C(=O)C2(C(F)(F)F)CC3(CCC3)C2)C2CC2)CC=CCCCCNC(=O)[C@H](Cc2cc(Cl)ccc2Cl)N(C)C1=O (single isomer, unassigned) [Example 16-P2]",990,350,2710,20,–,–,–,–,–
"CC(C)C[C@@H]1NC(=O)[C@@H](N(C)C(=O)[C@@H](NC(=O)[C@@H]2C[C@@H](F)CN2C(=O)C2(C(F)(F)F)CC(F)(F)C2)C2CC2)CCCCCCCNC(=O)[C@H](Cc2cc(Cl)ccc2-c2ccc3c(c2)COC32CN(C)C2)N(C)C1=O [Example 395] ({cBuCO(3,3-F2-1-CF3)}-[Pro(trans-4-F)][Gly(cPr)][NMe(hhhLys)]L[X98]; lactam 3-C)",10,20,–,–,–,–,–,–,–
CC(C)C[C@@H]1NC(=O)[C@@H](N(C)C(=O)[C@@H](NC(=O)[C@@H]2C[C@@H](F)CN2C(=O)C2(C(F)(F)F)CC(F)(F)C2)C2CC2)CC=CCCCCNC(=O)[C@H](Cc2cc(Cl)ccc2C2=CCC(F)(F)CC2)N(C)C1=O [Example 22],1800,1100,–,20,–,–,210,–,–
"COc1ncc(Cl)cc1C[C@H]1C(=O)N(C)CCCCCCC[C@H](N(C)C(=O)[C@@H](NC(=O)[C@@H]2C[C@@H](F)CN2C(=O)C2(C(F)(F)F)CC(F)(F)C2)C2CC2)C(=O)N[C@@H](CC(C)C)C(=O)N1C [Example 222] ({cBuCO(3,3-F2-1-CF3)}-[Pro(trans-4-F)][Gly(cPr)][NMehhhLys(Me)]L[NMe3Pal(2-OMe,5-Cl)]; lactam 3-C)",10,10,–,–,–,20,–,230,–
"Cc1noc(C)c1-c1ccc(Cl)cc1C[C@H]1C(=O)N(C)CCCCCCC[C@H](N(C)C(=O)[C@@H](NC(=O)[C@@H]2C[C@@H](F)CN2C(=O)C2(C(F)(F)F)CC(F)(F)C2)C2CC2)C(=O)N[C@@H](CC(C)C)C(=O)N1C [Example 210] ({cBuCO(3,3-F2-1-CF3)}-[Pro(trans-4-F)][Gly(cPr)][NMehhhLys(Me)]L[X215]; lactam 3-C)",110,100,–,–,–,20,–,–,420
"CC(C)Cc1ccc(Cl)cc1C[C@H]1C(=O)NCCCCCCC[C@H](N(C)C(=O)[C@@H](NC(=O)[C@@H]2C[C@@H](F)CN2C(=O)C2(C(F)(F)F)CC(F)(F)C2)C2CC2)C(=O)N[C@@H](CC(C)C)C(=O)N1C [Example 64] ({cBuCO(3,3-F2-1-CF3)}-[Pro(trans-4-F)][Gly(cPr)][NMe(hhhLys)]L[X214]; lactam 3-C)",1240,510,–,20,–,–,380,–,–
"CC(C)C[C@@H]1NC(=O)[C@@H](N(C)C(=O)[C@@H](NC(=O)[C@@H]2C[C@@H](F)CN2C(=O)C2(C(F)(F)F)CC3(CCC3)C2)C2CC2)CC=CCCCCNC(=O)[C@H](Cc2cc(Cl)ccc2Cl)N(C)C1=O (single isomer, unassigned) [Example 16-P1]",880,340,3150,20,–,–,–,–,–
CC(C)C[C@@H]1NC(=O)[C@@H](N(C)C(=O)[C@@H](NC(=O)[C@@H]2C[C@@H](F)CN2C(=O)C2(C(F)(F)F)CC(F)(F)C2)C2CC2)CC=CCCCCNC(=O)[C@H](Cc2cc(Cl)ccc2-c2cccc(Cl)c2)N(C)C1=O [Example 19],1760,550,–,20,–,–,430,–,–
